Assays:
Assay in all cases: NCI one-dose SRB assay
Assay type in all cases: cell-based
M14 = conditions: Homo sapiens, M14 (Melanoma), 1.00E-5 Molar, read-out: Growth Percent
Experimental: (§1) First, all diamide-based benzenesulfonamides herein reported 5a–h were screened for their antitumor activity at one dose (10^−5 M) assay against a panel of sixty cancer cell lines through the National Cancer Institute (NCI) Developmental Therapeutic Program (www.dtp.nci.nih.gov), according to US-NCI protocol. The cell growth and cell viability were evaluated using the sulforhodamine B (SRB) colorimetric assay.
(§2) This assay was carried out according to the protocol of the Drug Evaluation Branch, NCI, Bethesda. The cell growth and cell viability were evaluated using the sulforhodamine B (SRB) colorimetric assay, as reported earlier.

SF-268 = conditions: Homo sapiens, SF-268 (CNS Cancer), 1.00E-5 Molar, read-out: Growth Percent
Experimental: as §1, §2

NCI/ADR-RES = conditions: Homo sapiens, NCI/ADR-RES (Ovarian Cancer), 1.00E-5 Molar, read-out: Growth Percent
Experimental: as §1, §2

KM12 = conditions: Homo sapiens, KM12 (Colon Cancer), 1.00E-5 Molar, read-out: Growth Percent
Experimental: as §1, §2

OVCAR-3 = conditions: Homo sapiens, OVCAR-3 (Ovarian Cancer), 1.00E-5 Molar, read-out: Growth Percent
Experimental: as §1, §2

A549/ATCC = conditions: Homo sapiens, A549/ATCC (Non-Small Cell Lung Cancer), 1.00E-5 Molar, read-out: Growth Percent
Experimental: as §1, §2

HCT-15 = conditions: Homo sapiens, HCT-15 (Colon Cancer), 1.00E-5 Molar, read-out: Growth Percent
Experimental: as §1, §2

SNB-19 = conditions: Homo sapiens, SNB-19 (CNS Cancer), 1.00E-5 Molar, read-out: Growth Percent
Experimental: as §1, §2

MALME-3M = conditions: Homo sapiens, MALME-3M (Melanoma), 1.00E-5 Molar, read-out: Growth Percent
Experimental: as §1, §2

CAKI-1 = conditions: Homo sapiens, CAKI-1 (Renal Cancer), 1.00E-5 Molar, read-out: Growth Percent
Experimental: as §1, §2

UACC-62 = conditions: Homo sapiens, UACC-62 (Melanoma), 1.00E-5 Molar, read-out: Growth Percent
Experimental: as §1, §2

HOP-62 = conditions: Homo sapiens, HOP-62 (Non-Small Cell Lung Cancer), 1.00E-5 Molar, read-out: Growth Percent
Experimental: as §1, §2

CCRF-CEM = conditions: Homo sapiens, CCRF-CEM (Leukemia), 1.00E-5 Molar, read-out: Growth Percent
Experimental: as §1, §2

MOLT-4 = conditions: Homo sapiens, MOLT-4 (Leukemia), 1.00E-5 Molar, read-out: Growth Percent
Experimental: as §1, §2

786-0 = conditions: Homo sapiens, 786-0 (Renal Cancer), 1.00E-5 Molar, read-out: Growth Percent
Experimental: as §1, §2

SF-539 = conditions: Homo sapiens, SF-539 (CNS Cancer), 1.00E-5 Molar, read-out: Growth Percent
Experimental: as §1, §2

PC-3 = conditions: Homo sapiens, PC-3 (Prostate Cancer), 1.00E-5 Molar, read-out: Growth Percent
Experimental: as §1, §2

SN12C = conditions: Homo sapiens, SN12C (Renal Cancer), 1.00E-5 Molar, read-out: Growth Percent
Experimental: as §1, §2

HCC-2998 = conditions: Homo sapiens, HCC-2998 (Colon Cancer), 1.00E-5 Molar, read-out: Growth Percent
Experimental: as §1, §2

MCF7 = conditions: Homo sapiens, MCF7 (Breast Cancer), 1.00E-5 Molar, read-out: Growth Percent
Experimental: as §1, §2

T-47D = conditions: Homo sapiens, T47D, T-47D (Breast Cancer), 1.00E-5 Molar, read-out: Growth Percent
Experimental: as §1, §2

K-562 = conditions: Homo sapiens, K562, K-562 (Leukemia), 1.00E-5 Molar, read-out: Growth Percent
Experimental: as §1, §2

NCI-H23 = conditions: Homo sapiens, NCI-H23 (Non-Small Cell Lung Cancer), 1.00E-5 Molar, read-out: Growth Percent
Experimental: as §1, §2

MDA-MB-468 = conditions: Homo sapiens, MDA-MB-468 (Breast Cancer), 1.00E-5 Molar, read-out: Growth Percent
Experimental: as §1, §2

SF-295 = conditions: Homo sapiens, SF-295 (CNS Cancer), 1.00E-5 Molar, read-out: Growth Percent
Experimental: as §1, §2

MDA-MB-231/ATCC = conditions: Homo sapiens, MDA-MB-231/ATCC (Breast Cancer), 1.00E-5 Molar, read-out: Growth Percent
Experimental: as §1, §2

SK-OV-3 = conditions: Homo sapiens, SK-OV-3 (Ovarian Cancer), 1.00E-5 Molar, read-out: Growth Percent
Experimental: as §1, §2

NCI-H322M = conditions: Homo sapiens, NCI-H322M (Non-Small Cell Lung Cancer), 1.00E-5 Molar, read-out: Growth Percent
Experimental: as §1, §2

DU-145 = conditions: Homo sapiens, DU-145 (Prostate Cancer), 1.00E-5 Molar, read-out: Growth Percent
Experimental: as §1, §2

IGROV1 = conditions: Homo sapiens, IGROV-1, IGROV1 (Ovarian Cancer), 1.00E-5 Molar, read-out: Growth Percent
Experimental: as §1, §2

A498 = conditions: Homo sapiens, A498 (Renal Cancer), 1.00E-5 Molar, read-out: Growth Percent
Experimental: as §1, §2

SMILES	activity at 10 µM (M14) [%]	activity at 10 µM (SF-268) [%]	activity at 10 µM (NCI/ADR-RES) [%]	activity at 10 µM (KM12) [%]	activity at 10 µM (OVCAR-3) [%]	activity at 10 µM (A549/ATCC) [%]	activity at 10 µM (HCT-15) [%]	activity at 10 µM (SNB-19) [%]	activity at 10 µM (MALME-3M) [%]	activity at 10 µM (CAKI-1) [%]	activity at 10 µM (UACC-62) [%]	activity at 10 µM (HOP-62) [%]	activity at 10 µM (CCRF-CEM) [%]	activity at 10 µM (MOLT-4) [%]	activity at 10 µM (786-0) [%]	activity at 10 µM (SF-539) [%]	activity at 10 µM (PC-3) [%]	activity at 10 µM (SN12C) [%]	activity at 10 µM (HCC-2998) [%]	activity at 10 µM (MCF7) [%]	further results
NS(=O)(=O)c1ccc(NC(=O)C(=Cc2ccc(Cl)cc2)NC(=O)c2ccccc2)cc1 [Compound 5a, N-(1-(4-Chlorophenyl)-3-oxo-3-((4-sulfamoylphenyl)amino)prop-1-en-2-yl)benzamide]	102	96	104	108	104	101	106	103	96.3	92.5	96.2	91.9	107	103	95.9	98.8	105	104	103	98.3	activity at 10 µM (T-47D): 95.5%; activity at 10 µM (K-562): 109%; activity at 10 µM (NCI-H23): 103%; activity at 10 µM (MDA-MB-468): 101%; activity at 10 µM (SF-295): 104%; activity at 10 µM (MDA-MB-231/ATCC): 105%; activity at 10 µM (SK-OV-3): 97%; activity at 10 µM (NCI-H322M): 108%; activity at 10 µM (DU-145): 107%; activity at 10 µM (IGROV1): 90.9%; activity at 10 µM (A498): 104%
NS(=O)(=O)c1ccc(NC(=O)C(=Cc2ccc(Cl)cc2Cl)NC(=O)c2ccccc2)cc1 [Compound 5b, N-(1-(2,4-Dichlorophenyl)-3-oxo-3-((4-sulfamoylphenyl)amino)prop-1-en-2-yl)benzamide]	102	94.5	98.2	102	113	105	110	95.6	93.2	88.6	75	95.7	105	92.3	104	95.7	89.4	94.7	103	90.1	activity at 10 µM (T-47D): 87.5%; activity at 10 µM (K-562): 88.2%; activity at 10 µM (NCI-H23): 107%; activity at 10 µM (MDA-MB-468): 110%; activity at 10 µM (SF-295): 104%; activity at 10 µM (MDA-MB-231/ATCC): 105%; activity at 10 µM (SK-OV-3): 96.3%; activity at 10 µM (NCI-H322M): 102%; activity at 10 µM (DU-145): 109%; activity at 10 µM (IGROV1): 74.9%; activity at 10 µM (A498): 95%
NS(=O)(=O)c1ccc(NC(=O)C(=Cc2ccc(Br)cc2)NC(=O)c2ccccc2)cc1 [Compound 5c, N-(1-(4-Bromophenyl)-3-oxo-3-((4-sulfamoylphenyl)amino)prop-1-en-2-yl)benzamide]	109	99.6	102	102	103	102	92.5	95.1	92.2	91	88.1	104	99.4	89.5	96	92.8	92.7	99.4	103	98.1	activity at 10 µM (T-47D): 92.1%; activity at 10 µM (K-562): 92.8%; activity at 10 µM (NCI-H23): 100%; activity at 10 µM (MDA-MB-468): 99.9%; activity at 10 µM (SF-295): 99.2%; activity at 10 µM (MDA-MB-231/ATCC): 105%; activity at 10 µM (SK-OV-3): 101%; activity at 10 µM (NCI-H322M): 100%; activity at 10 µM (DU-145): 108%; activity at 10 µM (IGROV1): 90.2%; activity at 10 µM (A498): 94.5%
Cc1ccc(C=C(NC(=O)c2ccccc2)C(=O)Nc2ccc(S(N)(=O)=O)cc2)cc1 [Compound 5d, N-(3-Oxo-3-((4-sulfamoylphenyl)amino)-1-(p-tolyl)prop-1-en-2-yl)benzamide]	110	106	99.3	103	111	95.4	90.6	103	99	93.9	99.4	114	102	81.3	100	102	96.5	94.8	100	104	activity at 10 µM (T-47D): 101%; activity at 10 µM (K-562): 94.6%; activity at 10 µM (NCI-H23): 94.9%; activity at 10 µM (MDA-MB-468): 111%; activity at 10 µM (SF-295): 106%; activity at 10 µM (MDA-MB-231/ATCC): 104%; activity at 10 µM (SK-OV-3): 100%; activity at 10 µM (NCI-H322M): 108%; activity at 10 µM (DU-145): 105%; activity at 10 µM (IGROV1): 99.2%; activity at 10 µM (A498): 103%
COc1ccc(C=C(NC(=O)c2ccccc2)C(=O)Nc2ccc(S(N)(=O)=O)cc2)cc1 [Compound 5e, N-(1-(4-Methoxyphenyl)-3-oxo-3-((4-sulfamoylphenyl)amino)prop-1-en-2-yl)benzamide]	107	113	106	106	111	103	104	100	109	98.1	92.7	104	106	104	105	96.8	98.9	97.1	106	98.5	activity at 10 µM (T-47D): 101%; activity at 10 µM (K-562): 101%; activity at 10 µM (NCI-H23): 99.6%; activity at 10 µM (MDA-MB-468): 108%; activity at 10 µM (SF-295): 112%; activity at 10 µM (MDA-MB-231/ATCC): 110%; activity at 10 µM (SK-OV-3): 97.1%; activity at 10 µM (NCI-H322M): 110%; activity at 10 µM (DU-145): 113%; activity at 10 µM (IGROV1): 94.5%; activity at 10 µM (A498): 102%

Source: paper PMC6566410, “Novel Diamide-Based Benzenesulfonamides as Selective Carbonic Anhydrase IX Inhibitors Endowed with Antitumor Activity: Synthesis, Biological Evaluation and In Silico Insights” (International Journal of Molecular Sciences, 2019)
